In PMC7026418, “The kinase polypharmacology landscape of clinical PARP inhibitors” (Scientific Reports, 2020) one finds percent of control binding data, which are given here for four molecules.

Like-named read-outs stand apart in the source and are kept apart here.

Holding throughout (assay): biochemical
Design in all cases: DiscoveRx KINOMEscan active site-directed competition binding; percent of control kinase bound to immobilised ligand

In one assay the target is T1, S6K1 (Homo sapiens, UniProt P23443).
T1 construct: gene RPS6KB1

Assay [1] has as its target T2, RPS6KA4(Kin.Dom.1-N-terminal) (Homo sapiens, UniProt O75676).
T2 construct: Kin.Dom.1-N-terminal

Assay [2] concerns the target T3, RSK1(Kin.Dom.1-N-terminal) (Homo sapiens, UniProt Q15418).
T3 construct: gene RPS6KA1; Kin.Dom.1-N-terminal

The target in another assay is MST1R (Homo sapiens, UniProt Q04912).
A further assay concerns the target T4, HASPIN (Homo sapiens, UniProt Q8TF76).
T4 sequence (Q8TF76 1-798): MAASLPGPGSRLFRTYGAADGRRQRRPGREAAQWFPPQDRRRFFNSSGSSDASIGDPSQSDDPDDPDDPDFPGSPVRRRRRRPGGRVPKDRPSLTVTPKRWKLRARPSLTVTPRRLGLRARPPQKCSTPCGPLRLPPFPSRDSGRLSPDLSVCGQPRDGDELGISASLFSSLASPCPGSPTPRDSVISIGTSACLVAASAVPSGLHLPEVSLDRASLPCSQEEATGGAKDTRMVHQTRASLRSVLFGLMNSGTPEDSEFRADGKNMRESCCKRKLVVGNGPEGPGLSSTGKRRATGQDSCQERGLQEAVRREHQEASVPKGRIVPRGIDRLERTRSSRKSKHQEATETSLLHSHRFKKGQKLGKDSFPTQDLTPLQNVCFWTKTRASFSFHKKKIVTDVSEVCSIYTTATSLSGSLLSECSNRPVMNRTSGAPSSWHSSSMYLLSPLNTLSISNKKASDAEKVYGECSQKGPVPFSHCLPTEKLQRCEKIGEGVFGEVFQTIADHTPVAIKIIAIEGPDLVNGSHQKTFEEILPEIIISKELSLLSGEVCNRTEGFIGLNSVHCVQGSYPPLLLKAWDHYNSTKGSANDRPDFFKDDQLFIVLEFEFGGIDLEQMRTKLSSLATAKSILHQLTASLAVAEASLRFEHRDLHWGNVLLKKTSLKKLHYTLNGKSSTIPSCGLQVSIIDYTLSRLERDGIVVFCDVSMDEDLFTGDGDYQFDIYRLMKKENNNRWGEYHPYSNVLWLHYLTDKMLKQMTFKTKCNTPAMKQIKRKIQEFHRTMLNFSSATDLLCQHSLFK

Another assay addresses T5, EPHB3 (Homo sapiens, UniProt P54753).
T5 sequence (P54753 1-998): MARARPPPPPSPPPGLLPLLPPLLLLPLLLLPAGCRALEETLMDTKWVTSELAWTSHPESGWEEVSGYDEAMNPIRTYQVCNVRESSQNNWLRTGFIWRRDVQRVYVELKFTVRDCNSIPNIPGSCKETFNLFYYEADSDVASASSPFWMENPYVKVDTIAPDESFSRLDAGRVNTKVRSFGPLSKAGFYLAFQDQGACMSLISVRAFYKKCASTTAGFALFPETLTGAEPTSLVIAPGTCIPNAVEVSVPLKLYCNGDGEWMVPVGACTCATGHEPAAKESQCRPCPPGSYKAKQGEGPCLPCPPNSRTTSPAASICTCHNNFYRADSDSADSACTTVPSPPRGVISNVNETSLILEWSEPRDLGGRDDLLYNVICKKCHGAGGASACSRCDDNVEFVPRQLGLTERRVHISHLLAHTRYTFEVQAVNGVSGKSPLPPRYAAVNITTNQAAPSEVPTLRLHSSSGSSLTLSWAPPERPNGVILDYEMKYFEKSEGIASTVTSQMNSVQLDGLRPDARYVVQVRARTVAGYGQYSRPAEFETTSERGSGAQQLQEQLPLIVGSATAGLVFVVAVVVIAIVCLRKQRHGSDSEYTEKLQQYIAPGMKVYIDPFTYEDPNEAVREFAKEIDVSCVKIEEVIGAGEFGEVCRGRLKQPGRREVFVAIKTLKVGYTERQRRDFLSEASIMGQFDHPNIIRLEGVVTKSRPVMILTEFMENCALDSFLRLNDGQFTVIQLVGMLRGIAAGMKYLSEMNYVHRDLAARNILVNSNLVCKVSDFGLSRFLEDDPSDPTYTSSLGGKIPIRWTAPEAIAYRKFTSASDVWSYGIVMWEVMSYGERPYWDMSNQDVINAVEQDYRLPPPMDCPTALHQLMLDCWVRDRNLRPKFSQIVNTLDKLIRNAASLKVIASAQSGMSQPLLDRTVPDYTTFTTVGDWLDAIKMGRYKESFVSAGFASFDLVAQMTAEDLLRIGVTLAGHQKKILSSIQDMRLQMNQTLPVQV

The next assay concerns the target T6, TGFBR1 (Homo sapiens, UniProt P36897).
T6 sequence (P36897 1-503): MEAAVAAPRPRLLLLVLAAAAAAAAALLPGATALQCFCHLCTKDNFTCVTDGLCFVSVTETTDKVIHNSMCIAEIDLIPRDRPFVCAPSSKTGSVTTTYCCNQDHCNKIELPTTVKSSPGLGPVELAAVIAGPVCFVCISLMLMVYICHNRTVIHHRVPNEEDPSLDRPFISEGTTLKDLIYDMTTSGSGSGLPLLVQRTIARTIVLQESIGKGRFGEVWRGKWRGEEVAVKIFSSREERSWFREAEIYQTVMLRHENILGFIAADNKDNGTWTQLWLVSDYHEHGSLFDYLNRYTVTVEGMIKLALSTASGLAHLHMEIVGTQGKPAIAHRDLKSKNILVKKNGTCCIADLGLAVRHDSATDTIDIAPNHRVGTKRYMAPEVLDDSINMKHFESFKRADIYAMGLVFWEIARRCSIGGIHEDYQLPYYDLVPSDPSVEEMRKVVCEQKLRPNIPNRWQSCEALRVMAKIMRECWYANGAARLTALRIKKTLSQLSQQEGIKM

Where [3] appears, read: read-out: Niraparib (MK-4827) / %Ctrl @ 10000nM.
The mark [4] stands for this setting: read-out: Talazoparib (BMN 673) / %Ctrl @ 10000nM.
[5] abbreviates: read-out: Rucaparib / %Ctrl @ 10000nM, binding competition, % of control.
[6] abbreviates: read-out: Olaparib / %Ctrl @ 10000nM.

T1 sequence (P23443 whole entry): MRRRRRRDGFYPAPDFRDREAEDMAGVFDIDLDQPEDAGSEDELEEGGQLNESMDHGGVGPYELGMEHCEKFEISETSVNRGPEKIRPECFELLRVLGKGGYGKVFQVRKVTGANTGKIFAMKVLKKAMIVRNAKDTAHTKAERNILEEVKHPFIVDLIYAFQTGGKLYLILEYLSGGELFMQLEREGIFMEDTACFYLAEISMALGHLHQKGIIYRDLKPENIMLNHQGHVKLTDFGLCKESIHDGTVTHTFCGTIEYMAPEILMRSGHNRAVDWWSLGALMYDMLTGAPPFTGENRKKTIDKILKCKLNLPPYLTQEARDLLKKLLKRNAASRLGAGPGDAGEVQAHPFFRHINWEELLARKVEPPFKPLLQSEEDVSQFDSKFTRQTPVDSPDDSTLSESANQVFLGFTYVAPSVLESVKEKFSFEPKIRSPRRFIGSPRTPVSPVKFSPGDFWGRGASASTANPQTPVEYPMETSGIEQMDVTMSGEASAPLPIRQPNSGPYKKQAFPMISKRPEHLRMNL
T2 sequence (O75676 whole entry): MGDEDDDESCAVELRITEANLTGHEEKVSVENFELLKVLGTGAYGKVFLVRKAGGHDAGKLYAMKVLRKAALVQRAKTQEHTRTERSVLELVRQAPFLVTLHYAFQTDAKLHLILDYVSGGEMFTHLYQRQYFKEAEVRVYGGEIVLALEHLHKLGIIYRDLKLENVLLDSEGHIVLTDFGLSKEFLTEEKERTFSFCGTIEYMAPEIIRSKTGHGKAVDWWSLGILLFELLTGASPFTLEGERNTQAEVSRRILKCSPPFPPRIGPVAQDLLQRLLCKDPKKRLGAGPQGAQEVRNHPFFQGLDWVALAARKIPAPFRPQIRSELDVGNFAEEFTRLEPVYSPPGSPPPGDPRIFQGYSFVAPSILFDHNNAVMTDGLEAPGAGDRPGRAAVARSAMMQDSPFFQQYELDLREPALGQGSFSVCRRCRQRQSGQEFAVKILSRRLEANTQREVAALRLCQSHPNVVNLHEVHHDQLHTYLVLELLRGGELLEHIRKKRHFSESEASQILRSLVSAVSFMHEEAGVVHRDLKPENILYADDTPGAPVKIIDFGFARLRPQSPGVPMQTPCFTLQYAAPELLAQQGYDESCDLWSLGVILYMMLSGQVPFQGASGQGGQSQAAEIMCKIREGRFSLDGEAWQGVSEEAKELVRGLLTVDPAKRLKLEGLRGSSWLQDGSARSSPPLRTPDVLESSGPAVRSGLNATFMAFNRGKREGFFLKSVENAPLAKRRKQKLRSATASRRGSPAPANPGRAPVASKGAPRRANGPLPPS
Chain of MST1R (Q04912 whole entry): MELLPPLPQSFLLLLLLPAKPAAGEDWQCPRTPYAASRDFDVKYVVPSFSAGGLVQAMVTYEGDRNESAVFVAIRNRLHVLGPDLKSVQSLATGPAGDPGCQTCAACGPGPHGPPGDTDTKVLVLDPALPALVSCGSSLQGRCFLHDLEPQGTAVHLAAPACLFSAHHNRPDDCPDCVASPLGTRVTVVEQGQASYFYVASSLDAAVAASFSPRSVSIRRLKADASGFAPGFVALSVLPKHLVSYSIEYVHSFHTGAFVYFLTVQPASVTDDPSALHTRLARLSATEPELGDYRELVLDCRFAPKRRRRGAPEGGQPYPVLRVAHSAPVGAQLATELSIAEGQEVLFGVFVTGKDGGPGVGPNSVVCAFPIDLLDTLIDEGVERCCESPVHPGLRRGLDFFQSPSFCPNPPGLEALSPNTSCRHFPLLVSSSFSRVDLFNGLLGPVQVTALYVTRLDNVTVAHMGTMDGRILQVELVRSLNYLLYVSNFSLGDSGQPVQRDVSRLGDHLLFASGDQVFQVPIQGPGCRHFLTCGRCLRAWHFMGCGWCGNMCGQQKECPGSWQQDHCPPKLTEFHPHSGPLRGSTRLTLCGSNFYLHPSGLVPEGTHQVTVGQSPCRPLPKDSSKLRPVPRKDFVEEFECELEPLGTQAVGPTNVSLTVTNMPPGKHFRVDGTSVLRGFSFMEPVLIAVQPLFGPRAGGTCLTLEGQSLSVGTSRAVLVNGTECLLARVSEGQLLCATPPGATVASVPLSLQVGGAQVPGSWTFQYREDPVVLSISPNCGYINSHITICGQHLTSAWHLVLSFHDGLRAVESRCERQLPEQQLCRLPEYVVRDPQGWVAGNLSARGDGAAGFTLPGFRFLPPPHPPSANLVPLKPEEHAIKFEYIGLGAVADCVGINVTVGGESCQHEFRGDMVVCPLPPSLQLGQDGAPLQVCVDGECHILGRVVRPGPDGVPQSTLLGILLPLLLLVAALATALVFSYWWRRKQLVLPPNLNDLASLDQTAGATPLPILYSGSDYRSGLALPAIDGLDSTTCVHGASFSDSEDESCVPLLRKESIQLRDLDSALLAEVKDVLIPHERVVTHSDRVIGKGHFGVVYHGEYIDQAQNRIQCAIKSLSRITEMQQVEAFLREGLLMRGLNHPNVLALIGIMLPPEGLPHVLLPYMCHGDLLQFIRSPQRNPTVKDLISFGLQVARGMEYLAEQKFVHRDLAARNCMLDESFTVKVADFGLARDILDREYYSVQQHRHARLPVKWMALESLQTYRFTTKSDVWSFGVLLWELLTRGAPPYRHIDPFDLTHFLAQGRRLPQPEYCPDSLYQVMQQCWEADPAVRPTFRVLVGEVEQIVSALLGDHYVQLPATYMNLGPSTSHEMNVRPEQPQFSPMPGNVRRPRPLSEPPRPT
T3 sequence (Q15418 whole entry): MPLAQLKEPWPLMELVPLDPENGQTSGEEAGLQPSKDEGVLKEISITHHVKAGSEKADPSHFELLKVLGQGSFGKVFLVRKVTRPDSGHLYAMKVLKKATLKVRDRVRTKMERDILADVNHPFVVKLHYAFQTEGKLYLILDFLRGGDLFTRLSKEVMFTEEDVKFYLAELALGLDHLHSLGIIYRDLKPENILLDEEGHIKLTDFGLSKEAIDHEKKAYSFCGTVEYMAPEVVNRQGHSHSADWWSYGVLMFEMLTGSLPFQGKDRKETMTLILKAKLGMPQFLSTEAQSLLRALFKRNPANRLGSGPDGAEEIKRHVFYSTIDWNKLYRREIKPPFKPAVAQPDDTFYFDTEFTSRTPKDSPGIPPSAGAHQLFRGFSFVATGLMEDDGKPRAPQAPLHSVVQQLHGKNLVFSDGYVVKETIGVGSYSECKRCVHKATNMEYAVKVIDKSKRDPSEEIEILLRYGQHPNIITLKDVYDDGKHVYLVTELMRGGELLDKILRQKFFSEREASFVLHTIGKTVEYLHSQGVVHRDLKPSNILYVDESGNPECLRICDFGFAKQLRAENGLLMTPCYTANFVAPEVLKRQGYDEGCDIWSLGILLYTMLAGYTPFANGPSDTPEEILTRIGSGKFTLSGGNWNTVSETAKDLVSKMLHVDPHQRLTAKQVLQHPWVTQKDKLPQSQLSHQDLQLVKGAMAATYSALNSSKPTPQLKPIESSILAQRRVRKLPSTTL

For `NC(=O)c1cccc2cn(-c3ccc([C@@H]4CCCNC4)cc3)nc12` [Niraparib], the percent of control binding at 10 µM on S6K1 (setting [3]) amounted to 94%; in assay [1] (setting [3]) it was 100%; in assay [2] (setting [3]) it was 98%; on MST1R (setting [3]) it was 88%; on HASPIN (setting [3]), 2.2%; at EPHB3 (setting [3]) it was 82%. The percent of control binding at 10 µM on TGFBR1 (setting [3]) worked out at 98%.
For `Cn1ncnc1[C@H]1c2n[nH]c(=O)c3cc(F)cc(c23)N[C@@H]1c1ccc(F)cc1` [Talazoparib], the percent of control binding at 10 µM at S6K1 (setting [4]) worked out at 62%; in assay [1] (setting [4]), 61%; in assay [2] (setting [4]), 100%; on MST1R (setting [4]), 99%; on HASPIN (setting [4]) it was 100%; on EPHB3 (setting [4]), 100%. Besides, the percent of control binding at 10 µM on TGFBR1 (setting [4]) came out at 100%.
For `CNCc1ccc(-c2[nH]c3cc(F)cc4c3c2CCNC4=O)cc1` [Rucaparib], the percent of control binding at 10 µM turned out to be 60% at S6K1 (setting [5]); 100% in assay [1] (setting [5]); 91% in assay [2] (setting [5]); 91% on MST1R (setting [5]); 9% at HASPIN (setting [5]); 99% on EPHB3 (setting [5]). In addition, at TGFBR1 (setting [5]), the percent of control binding at 10 µM came to 98%.
For `O=C(c1cc(Cc2n[nH]c(=O)c3ccccc23)ccc1F)N1CCN(C(=O)C2CC2)CC1` [Olaparib], the percent of control binding at 10 µM came out at 73% on S6K1 (setting [6]); 100% in assay [1] (setting [6]); 94% in assay [2] (setting [6]); 84% on MST1R (setting [6]); 72% at HASPIN (setting [6]); 87% at EPHB3 (setting [6]). Besides, the percent of control binding at 10 µM on TGFBR1 (setting [6]) was found to be 93%.
